Measurements reported in patent US20060121126A1, “Environmentally friendly pesticide and method of use” (priority 2004, published 2006).

Tested on: Culex pipiens and Aedes Egypti late 3rd instar larvae
Assay: Mosquito larvae mortality in cups of tap water
Assay type: in vivo
Details: 20 larvae in 150 mL tap water
Protocol: A series of control experiments are conducted to study the effect of aqueous hydrogen peroxide and saponin extract on mosquito larvae, individually, and in combination. In a series of 30 experiments, 20 Culex pipiens and Aedes Egypti in the late 3rd instar larvae are placed in a cup containing 150 mL of tap water. In separate experiments, the larvae are exposed to varying concentrations of hydrogen peroxide saponin extract. The mortality is recorded over a 5-day period.

SMILES: OO [hydrogen peroxide]
- concentration needed to achieve 50% larvae mortality in 24 hrs: > 100 ppm
